From patent publication EP4603105A1, “PHARMACEUTICAL COMPOSITION CONTAINING CYCLIC COMPOUND HAVING SELECTIVE KRAS INHIBITORY EFFECT AGAINST HRAS AND NRAS” (CHUGAI SEIYAKU KABUSHIKI KAISHA, priority 2022, dated 2024)
Where two headings read alike, the source gives them in different places.

Key:
[1] = system: human lung cancer strain NCI-H441; assay: NCI-H441 cell proliferation inhibitory activity (CellTiter-Glo, 4 days); format: cell-based; details: read-out: NCl-H441 IC50
Summary of the method: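 Readout: […] after the ATP-based reagent. Compound: serial dilutions in dimethyl sulfoxide.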

[2] = molecular target: GDP-bound KRAS wild-type protein (Homo sapiens, UniProt P01116); assay: Binding to KRAS by surface plasmon resonance (SPR), dissociation constant KD
GDP-bound KRAS wild-type protein, sequence (P01116 1-188 isoform P01116-2): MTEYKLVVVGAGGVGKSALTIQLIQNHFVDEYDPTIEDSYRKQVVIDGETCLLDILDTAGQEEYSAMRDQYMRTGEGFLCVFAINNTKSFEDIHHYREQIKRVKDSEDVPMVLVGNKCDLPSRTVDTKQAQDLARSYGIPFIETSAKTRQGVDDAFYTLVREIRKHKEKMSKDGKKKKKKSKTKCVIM
Summary of the method: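 Single-cycle kinetics on GDP-loaded biotin-Avi RAS captured to ~100–300 RU; 75 s ascending injections, 100 µL/min, 30°C. HBS pH 7.4 + 10 mM MgCl2/10 µM GDP/4% DMSO. 1:1 fit, KD.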

[3] = molecular target: GDP-bound NRAS wild-type protein (Homo sapiens, UniProt P01111); assay: Binding to NRAS by surface plasmon resonance (SPR), KD and KD ratio to KRAS
GDP-bound NRAS wild-type protein, sequence (P01111 whole entry): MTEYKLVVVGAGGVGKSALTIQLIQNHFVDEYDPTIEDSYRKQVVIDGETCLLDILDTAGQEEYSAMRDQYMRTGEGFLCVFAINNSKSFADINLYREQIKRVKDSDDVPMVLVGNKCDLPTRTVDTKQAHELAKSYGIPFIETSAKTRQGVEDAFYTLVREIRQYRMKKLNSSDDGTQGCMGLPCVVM
Summary of the method: (§1)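 GDP-bound biotin-Avi RAS captured at ~100–300 RU, 30°C, pH 7.4 HBS containing 10 µM GDP, 10 mM MgCl2, 1 mM DTT, 0.01% Tween 20 and 4% DMSO. KD by 1:1 fitting.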

HRAS wild-type protein = HRAS wild-type protein (Homo sapiens, UniProt P01112); assay: Binding to HRAS by surface plasmon resonance (SPR), KD and KD ratio to KRAS
HRAS wild-type protein, sequence (P01112 whole entry): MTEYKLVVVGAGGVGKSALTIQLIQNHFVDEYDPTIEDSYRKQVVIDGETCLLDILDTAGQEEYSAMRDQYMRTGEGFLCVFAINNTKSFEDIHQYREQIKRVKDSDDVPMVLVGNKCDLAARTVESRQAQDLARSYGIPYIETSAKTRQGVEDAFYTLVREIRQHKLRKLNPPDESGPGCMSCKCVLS
Summary of the method: as §1

[4] = 50% proliferation inhibitory concentration, four days
[5] = Single Cycle Kinetics, 1:1 binding model
[6] = ratio of KD with respect to GDP-bound NRAS wild-type protein to KD with respect to KRAS
[7] = ratio of KD with respect to HRAS wild-type protein to KD with respect to KRAS
[8] = ratio of KD for GDP-bound NRAS wild-type protein to KD for KRAS
[9] = ratio of KD for HRAS wild-type protein to KD for KRAS

Row | Compound | IC50 [1, 4] [nM] | Kd [2, 5] [nM] | IC50 ([1]; NCI-H441 cells, 4 days) [nM] | Kd ([2]; 1:1 binding model) [nM] | Kd ([2]; Single Cycle Kinetics) [nM] | NRAS /KRAS [3, 6] | HRAS /KRAS (HRAS wild-type protein; [7]) | NRAS /KRAS [3, 8] | HRAS /KRAS (HRAS wild-type protein; [9])
1 | CCO[C@@H]1C[C@H]2C(=O)NC3(CCC3)C(=O)N(C)[C@@H](C3CCCC3)C(=O)N(C)[C@H](C(=O)N3CCOCC3)CC(=O)N(C)[C@@H](Cc3ccccc3C#N)C(=O)N[C@@H]([C@@H](C)CC)C(=O)N(C)CC(=O)N(C)[C@H]3CCCCCN(C3=O)[C@@H](Cc3ccc(F)cc3)C(=O)N(C)CC(=O)N[C@@H](CCc3cc(F)c(C(F)(F)F)c(F)c3)C(=O)N2C1 [PP1185] | 175 | 0.5 |  |  |  | B (a compound having 3 or more and less than 10 is denoted as B) | B (a compound having 3 or more and less than 10 is denoted as B) |  | 
2 | CCO[C@@H]1C[C@H]2C(=O)NC3(CCC3)C(=O)N(C)[C@@H](C3CCCC3)C(=O)N(C)[C@H](C(=O)N(C)C)CC(=O)N(C)[C@@H](CC)C(=O)N[C@@H]([C@@H](C)CC)C(=O)N(C)CC(=O)N(C)[C@H]3C/C=C\CCN(C3=O)[C@@H](Cc3ccc(C(F)(F)F)cc3)C(=O)N(C)CC(=O)N[C@@H](CCc3ccc(Cl)c(Cl)c3)C(=O)N2C1 [PP1249] | 55.4 | 0.18 |  |  |  | A (a compound having 10 or more and less than 20 is denoted as A) | A (a compound having 10 or more and less than 20 is denoted as A) |  | 
3 | CCO[C@@H]1C[C@H]2C(=O)NC3(CCC3)C(=O)N(C)[C@@H](C3CCCC3)C(=O)N(C)[C@H](C(=O)N3CCOCC3)CC(=O)N(C)[C@@H](CC)C(=O)N[C@@H]([C@@H](C)CC)C(=O)N3CC[C@H]3C(=O)N(C)[C@H]3C[C@@H](C)[C@@H](C)CN(C3=O)[C@@H](Cc3ccc(C(F)(F)F)cc3)C(=O)N(C)CC(=O)N[C@@H](CCc3cc(F)c(C(F)(F)F)c(F)c3)C(=O)N2C1 [PP1351] | 12.8 | 0.13 |  |  |  | A (a compound having 10 or more and less than 20 is denoted as A) | B (a compound having 3 or more and less than 10 is denoted as B) |  | 
4 | CCO[C@@H]1C[C@H]2C(=O)NC3(CCC3)C(=O)N(C)[C@@H](C3CCCC3)C(=O)N(C)[C@H](C(=O)N3CCOCC3)CC(=O)N(C)[C@@H](CC3CCCC3)C(=O)N[C@@H]([C@@H](C)CC)C(=O)N(C)CC(=O)N(C)[C@H]3C/C=C\CCN(C3=O)[C@@H](Cc3ccc(C(F)(F)F)cc3)C(=O)N(C)CC(=O)N[C@@H](CCc3cc(F)c(C(F)(F)F)c(F)c3)C(=O)N2C1 [PP1393] | 18.2 | 0.19 |  |  |  | A (a compound having 10 or more and less than 20 is denoted as A) | A (a compound having 10 or more and less than 20 is denoted as A) |  | 
5 | CCO[C@@H]1C[C@H]2C(=O)NC3(CCC3)C(=O)N(C)[C@@H](C(CC)CC)C(=O)N(C)[C@H](C(=O)N3CCCC3)CC(=O)N(C)[C@@H](COC)C(=O)N[C@@H]([C@@H](C)CC)C(=O)N(C)CC(=O)N(C)[C@H]3C/C=C\CCN(C3=O)[C@@H](CC3CCC(F)(F)CC3)C(=O)N(C)CC(=O)N[C@@H](CCc3cc(F)c(C(F)(F)F)c(F)c3)C(=O)N2C1 [PP1440] | 69.7 | 0.35 |  |  |  | AA (a compound having 20 or more is denoted as AA) | A (a compound having 10 or more and less than 20 is denoted as A) |  | 
6 | CCO[C@@H]1C[C@H]2C(=O)NC3(CCC3)C(=O)N(C)[C@@H](C3CCCC3)C(=O)N(C)[C@H](C(=O)N3CCOCC3)CC(=O)N(C)[C@@H](CC(C)C)C(=O)N[C@@H]([C@@H](C)CC)C(=O)N3CC[C@H]3C(=O)N(C)[C@H]3C[C@@H](C)[C@@H](C)CN(C3=O)[C@@H](Cc3ccc(C(F)(F)F)cc3)C(=O)N(C)CC(=O)N[C@@H](CCc3ccc(C(F)(F)F)c(Cl)c3)C(=O)N2C1 [PP1361] | 6.2 | 0.15 |  |  |  | A (a compound having 10 or more and less than 20 is denoted as A) | B (a compound having 3 or more and less than 10 is denoted as B) |  | 
7 | CCO[C@@H]1C[C@H]2C(=O)NC3(CCC3)C(=O)N(C)[C@@H](C3CCCC3)C(=O)N(C)[C@H](C(=O)N3CCCC3)CC(=O)N(C)[C@@H](CC)C(=O)N[C@@H]([C@@H](C)CC)C(=O)N(C)CC(=O)N(C)[C@H]3C/C=C\CCN(C3=O)[C@@H](CC3CCCCC3)C(=O)N(C)CC(=O)N[C@@H](CCc3cc(F)c(C(F)(F)F)c(F)c3)C(=O)N2C1 [PP1443] | 34.8 | 0.15 |  |  |  | AA (a compound having 20 or more is denoted as AA) | A (a compound having 10 or more and less than 20 is denoted as A) |  | 

Further lines, with some results ahead:

Row | IC50 [1, 4] [nM] | Kd [2, 5] [nM] | IC50 ([1]; NCI-H441 cells, 4 days) [nM] | Kd ([2]; 1:1 binding model) [nM] | Kd ([2]; Single Cycle Kinetics) [nM] | Compound | NRAS /KRAS [3, 6] | HRAS /KRAS (HRAS wild-type protein; [7]) | NRAS /KRAS [3, 8] | HRAS /KRAS (HRAS wild-type protein; [9])
8 | 59.3 | 0.45 |  |  |  | CCO[C@@H]1C[C@H]2C(=O)NC3(CCC3)C(=O)N(C)[C@@H](C3CCCC3)C(=O)N(C)[C@H](C(=O)N(C)C)CC(=O)N(C)[C@@H](CC3CC3)C(=O)N[C@@H]([C@@H](C)CC)C(=O)N(C)CC(=O)N(C)[C@H]3C/C=C\CCN(C3=O)[C@@H](Cc3ccc(C)cc3)C(=O)N(C)CC(=O)N[C@@H](CCc3cc(F)c(Cl)c(F)c3)C(=O)N2C1 [PP1484] | A (a compound having 10 or more and less than 20 is denoted as A) | A (a compound having 10 or more and less than 20 is denoted as A) |  | 
9 |  |  | 102 | 1.9 |  | CCC[C@H]1C(=O)N[C@@H]([C@@H](C)CC)C(=O)N(C2CC2)CC(=O)N(C)[C@H]2C/C=C\CCN(C2=O)[C@@H](CC2CCC(F)(F)CC2)C(=O)N(C)CC(=O)N[C@@H](CCc2ccc(Cl)c(Cl)c2)C(=O)N2C[C@H](OCC)C[C@H]2C(=O)NC2(CC(C)(C)C2)C(=O)N(C)[C@@H](C2CCCC2)C(=O)N(C)[C@H](C(=O)N(C)C)CC(=O)N1C [PP2567] |  |  | A (a compound having 10 or more and less than 20 is denoted as A) | A (a compound having 10 or more and less than 20 is denoted as A)
10 |  |  | 8.9 | 0.39 |  | CCC[C@H]1C(=O)N[C@@H]([C@@H](C)CC)C(=O)N(C2CC2)CC(=O)N(C)[C@H]2C/C=C\CCN(C2=O)[C@@H](Cc2ccc(C)cc2)C(=O)N(C)CC(=O)N[C@@H](CCc2cc(F)c(C(F)(F)F)c(F)c2)C(=O)N2C[C@H](OC(C)C)C[C@H]2C(=O)NC2(CC(C)(C)C2)C(=O)N(C)[C@@H](C2CCCC2)C(=O)N(C)[C@H](C(=O)N(C)C)CC(=O)N1C [PP2570] |  |  | A (a compound having 10 or more and less than 20 is denoted as A) | A (a compound having 10 or more and less than 20 is denoted as A)
11 |  |  | 24.2 | 0.17 |  | CCOC[C@H]1C(=O)N[C@@H]([C@@H](C)CC)C(=O)N(C)CC(=O)N(C)[C@H]2C/C=C\CCN(C2=O)[C@@H](Cc2ccc(C(F)(F)F)cc2)C(=O)N(C)CC(=O)N[C@@H](CCc2ccc(Cl)c(Cl)c2)C(=O)N2C[C@H](OCC)C[C@H]2C(=O)NC2(CC(C)(C)C2)C(=O)N(C)[C@@H](CC(C)(C)C)C(=O)N(C)[C@H](C(=O)N(C)C)CC(=O)N1C [PP2740] |  |  | AA (a compound having 20 or more is denoted as AA) | A (a compound having 10 or more and less than 20 is denoted as A)
12 |  |  | 97 | 2.5 |  | CCC[C@H]1C(=O)N[C@@H]([C@@H](C)CC)C(=O)N2CCC[C@H]2C(=O)N(C)[C@H]2C/C=C\CCN(C2=O)[C@@H](Cc2ccc(C)cc2)C(=O)N(C)CC(=O)N[C@@H](CCc2ccc(Cl)c(Cl)c2)C(=O)N2C[C@H](OCC)C[C@H]2C(=O)NC2(CC(C)(C)C2)C(=O)N(C)[C@@H](C(CC)CC)C(=O)N(C)[C@H](C(=O)N(C)C)CC(=O)N1C [PP2638] |  |  | AA (a compound having 20 or more is denoted as AA) | A (a compound having 10 or more and less than 20 is denoted as A)
13 |  |  | 115 |  | 3.1 | CCCO[C@@H]1C[C@H]2C(=O)NC3(CC(C)(C)C3)C(=O)N(C)[C@@H](C3CCCC3)C(=O)N(C)[C@H](C(=O)N(C)CC)CC(=O)N(C)[C@@H](COCC)C(=O)N[C@@H]([C@@H](C)CC)C(=O)N3C[C@@H](C)C[C@H]3C(=O)N(C)[C@H]3C/C=C\CCN(C3=O)[C@@H](Cc3ccc(C)cc3)C(=O)N(C)CC(=O)N[C@@H](CCc3cc(F)c(C(F)(F)F)c(F)c3)C(=O)N2C1 [PP3460] |  |  | A (a compound having 10 or more and less than 20 is denoted as A) | A (a compound having 10 or more and less than 20 is denoted as A)
14 |  |  | 118 | 1.8 |  | CCOC[C@H]1C(=O)N[C@@H]([C@@H](C)CC)C(=O)N(C)CC(=O)N(C)[C@H]2C/C=C\CCN(C2=O)[C@@H](CC2CCCCC2)C(=O)N(C)CC(=O)N[C@@H](CCc2ccc(C(F)(F)F)c(OC)c2)C(=O)N2C[C@H](OCC)C[C@H]2C(=O)NC2(CC(C)(C)C2)C(=O)N(C)[C@@H](C(CC)CC)C(=O)N(C)[C@H](C(=O)N(C)C)CC(=O)N1C [PP2470] |  |  | A (a compound having 10 or more and less than 20 is denoted as A) | A (a compound having 10 or more and less than 20 is denoted as A)
15 |  |  | 89.4 |  | 4.2 | CCCOC[C@H]1C(=O)N[C@@H]([C@H](C)CC)C(=O)N(CCC)CC(=O)N(C)[C@H]2C/C=C\CCN(C2=O)[C@@H](Cc2ccc(C(F)F)cc2)C(=O)N(C)CC(=O)N[C@@H](CCc2cc(F)c(C(F)(F)F)c(F)c2)C(=O)N2C[C@H](OC(C)C)C[C@H]2C(=O)N(C)C2(CCC2)C(=O)N(C)[C@@H](C(CC)CC)C(=O)N(C)[C@H](C(=O)N(C)C)CC(=O)N1C [PP3492] |  |  | A (a compound having 10 or more and less than 20 is denoted as A) | A (a compound having 10 or more and less than 20 is denoted as A)
